Measured values: article PMC8213057, “Targeting ALK2: An Open Science Approach to Developing Therapeutics for the Treatment of Diffuse Intrinsic Pontine Glioma” (Journal of Medicinal Chemistry, 2020)
pIC50: −log10 of the molar value.

What was measured:
PKCiota = target: T1, PKCiota (Homo sapiens, UniProt P41743); details: 1 μM; Run 1, Run 2
T1 sequence (P41743 1-596): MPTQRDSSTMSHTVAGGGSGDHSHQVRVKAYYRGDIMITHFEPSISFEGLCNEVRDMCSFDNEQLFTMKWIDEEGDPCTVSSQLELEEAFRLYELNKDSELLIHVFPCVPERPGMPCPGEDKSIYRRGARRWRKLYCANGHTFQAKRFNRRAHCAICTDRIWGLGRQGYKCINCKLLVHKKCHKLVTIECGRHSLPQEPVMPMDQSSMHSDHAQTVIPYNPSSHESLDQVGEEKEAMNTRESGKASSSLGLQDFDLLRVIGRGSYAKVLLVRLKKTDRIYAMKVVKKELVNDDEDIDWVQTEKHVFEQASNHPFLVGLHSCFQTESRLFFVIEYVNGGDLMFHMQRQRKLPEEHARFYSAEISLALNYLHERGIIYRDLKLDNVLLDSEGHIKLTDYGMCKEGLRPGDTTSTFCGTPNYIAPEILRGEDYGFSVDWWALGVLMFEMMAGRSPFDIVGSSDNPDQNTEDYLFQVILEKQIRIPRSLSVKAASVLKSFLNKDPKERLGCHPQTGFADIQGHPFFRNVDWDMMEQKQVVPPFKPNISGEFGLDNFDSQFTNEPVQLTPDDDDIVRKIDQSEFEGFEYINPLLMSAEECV

YSK4/MAP3K19 = target: T2, YSK4/MAP3K19 (Homo sapiens, UniProt Q56UN5); assay: biochemical; details: read-out: % enzyme activity, 1 μM; Run 1, Run 2
T2 sequence (Q56UN5 1-1328): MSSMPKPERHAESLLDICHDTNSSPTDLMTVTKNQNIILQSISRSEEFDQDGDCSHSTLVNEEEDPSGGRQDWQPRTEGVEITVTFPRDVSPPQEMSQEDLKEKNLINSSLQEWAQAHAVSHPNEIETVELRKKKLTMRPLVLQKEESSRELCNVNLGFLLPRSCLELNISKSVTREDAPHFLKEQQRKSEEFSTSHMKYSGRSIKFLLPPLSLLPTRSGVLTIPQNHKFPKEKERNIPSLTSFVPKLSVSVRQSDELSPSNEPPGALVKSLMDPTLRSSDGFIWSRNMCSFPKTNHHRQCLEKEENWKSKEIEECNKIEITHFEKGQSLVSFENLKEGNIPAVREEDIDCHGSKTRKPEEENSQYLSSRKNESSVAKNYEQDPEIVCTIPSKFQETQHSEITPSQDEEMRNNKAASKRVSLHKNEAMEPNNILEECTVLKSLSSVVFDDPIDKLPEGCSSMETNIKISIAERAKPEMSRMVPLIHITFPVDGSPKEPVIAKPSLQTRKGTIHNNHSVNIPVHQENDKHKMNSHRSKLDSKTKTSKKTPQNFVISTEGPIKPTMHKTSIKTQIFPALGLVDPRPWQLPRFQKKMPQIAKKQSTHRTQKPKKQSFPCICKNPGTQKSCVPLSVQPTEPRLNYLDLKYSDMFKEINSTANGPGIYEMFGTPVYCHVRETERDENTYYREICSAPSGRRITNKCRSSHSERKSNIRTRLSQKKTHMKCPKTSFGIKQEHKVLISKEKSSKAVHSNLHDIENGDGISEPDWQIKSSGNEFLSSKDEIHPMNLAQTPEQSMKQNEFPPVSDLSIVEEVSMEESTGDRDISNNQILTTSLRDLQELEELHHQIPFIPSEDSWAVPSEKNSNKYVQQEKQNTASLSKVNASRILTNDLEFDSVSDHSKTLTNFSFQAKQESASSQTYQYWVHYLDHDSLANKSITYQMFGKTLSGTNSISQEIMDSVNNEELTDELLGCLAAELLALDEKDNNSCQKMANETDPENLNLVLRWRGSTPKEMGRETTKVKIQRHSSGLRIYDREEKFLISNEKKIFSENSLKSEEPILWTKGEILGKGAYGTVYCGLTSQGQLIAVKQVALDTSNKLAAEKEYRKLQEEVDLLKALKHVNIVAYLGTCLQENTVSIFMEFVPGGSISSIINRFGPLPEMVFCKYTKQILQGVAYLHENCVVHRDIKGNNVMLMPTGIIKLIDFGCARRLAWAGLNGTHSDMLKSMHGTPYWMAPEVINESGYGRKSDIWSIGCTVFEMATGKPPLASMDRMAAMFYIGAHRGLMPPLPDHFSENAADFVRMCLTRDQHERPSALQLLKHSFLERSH

SNRK = target: T3, SNRK (Homo sapiens, UniProt Q9NRH2); details: 1 μM; Run 1, Run 2
T3 sequence (Q9NRH2 1-765): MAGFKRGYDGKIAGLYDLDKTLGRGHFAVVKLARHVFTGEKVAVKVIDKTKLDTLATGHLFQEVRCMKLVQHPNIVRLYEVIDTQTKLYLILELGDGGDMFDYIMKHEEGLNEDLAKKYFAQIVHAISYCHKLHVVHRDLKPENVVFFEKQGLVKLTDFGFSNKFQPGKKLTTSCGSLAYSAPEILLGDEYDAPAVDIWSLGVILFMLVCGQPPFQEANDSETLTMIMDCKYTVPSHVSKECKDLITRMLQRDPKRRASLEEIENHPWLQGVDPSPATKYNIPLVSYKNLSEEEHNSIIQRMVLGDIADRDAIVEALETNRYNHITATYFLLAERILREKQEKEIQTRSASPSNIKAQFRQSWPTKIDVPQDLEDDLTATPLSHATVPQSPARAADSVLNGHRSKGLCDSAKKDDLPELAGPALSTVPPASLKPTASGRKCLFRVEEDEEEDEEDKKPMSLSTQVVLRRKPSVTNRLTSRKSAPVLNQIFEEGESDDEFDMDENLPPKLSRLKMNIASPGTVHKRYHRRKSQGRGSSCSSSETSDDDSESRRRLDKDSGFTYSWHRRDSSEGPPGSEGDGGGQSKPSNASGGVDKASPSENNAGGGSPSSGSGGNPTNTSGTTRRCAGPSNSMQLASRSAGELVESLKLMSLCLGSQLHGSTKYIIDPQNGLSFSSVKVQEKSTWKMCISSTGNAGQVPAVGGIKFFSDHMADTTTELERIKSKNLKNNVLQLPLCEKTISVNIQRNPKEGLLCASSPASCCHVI

ERK2/MAPK1 = ERK2/MAPK1 (Homo sapiens, UniProt P28482); details: 1 μM; Run 1, Run 2
Sequence of ERK2/MAPK1 (P28482 whole entry): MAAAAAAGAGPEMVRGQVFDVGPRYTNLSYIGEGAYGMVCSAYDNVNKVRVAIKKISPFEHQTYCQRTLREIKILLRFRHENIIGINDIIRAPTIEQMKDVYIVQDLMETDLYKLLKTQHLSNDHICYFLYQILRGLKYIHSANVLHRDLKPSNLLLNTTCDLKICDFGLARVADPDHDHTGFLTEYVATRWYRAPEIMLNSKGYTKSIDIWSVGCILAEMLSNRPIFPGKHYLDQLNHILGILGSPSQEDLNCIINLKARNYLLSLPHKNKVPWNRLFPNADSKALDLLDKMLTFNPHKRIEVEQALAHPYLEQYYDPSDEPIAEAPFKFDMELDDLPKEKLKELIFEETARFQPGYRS

CYP2C19 = CYP2C19 (Homo sapiens, UniProt P33261); details: read-out: CYP2C19 IC50; human liver microsomes
Sequence of CYP2C19 (P33261 whole entry): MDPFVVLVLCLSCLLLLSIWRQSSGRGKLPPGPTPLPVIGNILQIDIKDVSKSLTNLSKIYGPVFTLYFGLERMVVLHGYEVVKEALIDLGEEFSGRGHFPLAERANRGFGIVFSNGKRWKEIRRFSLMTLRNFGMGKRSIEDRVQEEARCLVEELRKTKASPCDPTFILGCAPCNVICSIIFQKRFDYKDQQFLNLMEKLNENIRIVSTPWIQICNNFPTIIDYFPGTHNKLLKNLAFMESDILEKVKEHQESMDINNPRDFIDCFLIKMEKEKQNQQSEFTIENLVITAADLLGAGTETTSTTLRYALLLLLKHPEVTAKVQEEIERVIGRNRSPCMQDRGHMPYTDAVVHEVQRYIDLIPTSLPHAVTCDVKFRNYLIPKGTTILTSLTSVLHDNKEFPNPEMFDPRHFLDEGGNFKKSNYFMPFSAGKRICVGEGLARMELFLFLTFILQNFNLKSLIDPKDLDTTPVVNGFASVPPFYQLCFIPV

Structure (SMILES) | % enzyme activity (PKCiota) | remaining activity at 1 µM (YSK4/MAP3K19) | CYP inhibition (CYP2C9) | % enzyme activity (SNRK) | % enzyme activity (ERK2/MAPK1) | pIC50 (CYP2C19)
COc1cc(-c2cncc(-c3ccc(N4CCN(C)CC4)cc3)c2C)cc(F)c1C(N)=O [Compound 26a, 2-Fluoro-6-methoxy-4-(4-methyl-5-(4-(4-methylpiperazin-1-yl)phenyl)pyridin-3-yl)benzamide] | 100.36% | 98.2% | > 50 µM | 104.94% | 91.58% | < 4.30
COc1cc(-c2cncc(-c3ccc(N4C[C@@H](C)N(C)[C@@H](C)C4)cc3)c2C)cc(F)c1C(N)=O [Compound 26c, 2-Fluoro-6-methoxy-4-(4-methyl-5-(4-((3R,5S)-3,4,5-trimethylpiperazin-1-yl)phenyl)pyridin-3-yl)benzamide] | 98.91% | 97% | > 50 µM | 97.75% | 87.49% | < 4.30
